In ChEMBL document CHEMBL3585267, “Bioactivity of surface tethered Osteogenic Growth Peptide motifs” (2014):
Active and inactive are the calls of the source. The calls are words filed in the database; no cut-off is given here. Peptide text beside a SMILES is read from it.

Columns and labels:
Mesenchymal stem cell [1] = test: Induction of osteogenesis of rabbit mesenchymal stem cells by alkaline phosphatase assay; assay type: functional; settings: Oryctolagus cuniculus
Mesenchymal stem cell [2] = test: Effect on cell proliferation of rabbit mesenchymal stem cells incubated for 7 days by MTT assay; assay type: functional; settings: Oryctolagus cuniculus
[3] = Reduction in cell proliferation of rabbit mesenchymal stem cells incubated for 7 days by MTT assay; assay type: functional; settings: Oryctolagus cuniculus
Mesenchymal stem cell [4] = test: Effect on cell proliferation of rabbit mesenchymal stem cells incubated for 3 days by MTT assay; assay type: functional; settings: Oryctolagus cuniculus
Mesenchymal stem cell [5] = test: Effect on cell morphology of rabbit mesenchymal stem cells incubated for 7 days by H and E staining method; assay type: functional; settings: Oryctolagus cuniculus
Mesenchymal stem cell [6] = test: Increase in SPARC mRNA expression in rabbit mesenchymal stem cells incubated for 7 days by qRT-PCR method relative to untreated control; assay type: functional; settings: Oryctolagus cuniculus
[7] = Increase in SPARC mRNA expression in rabbit mesenchymal stem cells incubated for 14 days by qRT-PCR method relative to untreated control; assay type: functional, Oryctolagus cuniculus, Mesenchymal stem cell
[8] = Reduction in cell proliferation of rabbit mesenchymal stem cells incubated for 14 days by MTT assay; assay type: functional; settings: Oryctolagus cuniculus
[9] = (§1) Increase in BMP2 mRNA expression in rabbit mesenchymal stem cells incubated for 7 days by qRT-PCR method relative to untreated control; assay type: functional, Oryctolagus cuniculus, Mesenchymal stem cell
[10] = (§2) Increase in BMP2 mRNA expression in rabbit mesenchymal stem cells incubated for 14 days by qRT-PCR method relative to untreated control; assay type: functional, Oryctolagus cuniculus, Mesenchymal stem cell
Mesenchymal stem cell [11] = test: Effect on cell morphology of rabbit mesenchymal stem cells incubated for 3 days by phalloidin immunofluorescence staining method; assay type: functional; settings: Oryctolagus cuniculus
[12] = Reduction in cell proliferation of rabbit mesenchymal stem cells incubated for 5 days by MTT assay; assay type: functional; settings: Oryctolagus cuniculus
[13] = (§3) Increase in RUNX2 mRNA expression in rabbit mesenchymal stem cells incubated for 14 days by qRT-PCR method relative to untreated control; assay type: functional, Oryctolagus cuniculus, Mesenchymal stem cell
[14] = (§4) Increase in RUNX2 mRNA expression in rabbit mesenchymal stem cells incubated for 7 days by qRT-PCR method relative to untreated control; assay type: functional, Oryctolagus cuniculus, Mesenchymal stem cell
Mesenchymal stem cell [15] = test: Increase in cell proliferation of rabbit mesenchymal stem cells incubated for 14 days by MTT assay; assay type: functional; settings: Oryctolagus cuniculus
Mesenchymal stem cell [16] = test: as §1; assay type: functional; settings: Oryctolagus cuniculus
Mesenchymal stem cell [17] = test: as §2; assay type: functional; settings: Oryctolagus cuniculus
Mesenchymal stem cell [18] = test: as §3; assay type: functional; settings: Oryctolagus cuniculus
Mesenchymal stem cell [19] = test: as §4; assay type: functional; settings: Oryctolagus cuniculus

CC(C)C[C@H](NC(=O)[C@@H](NC(=O)[C@H](CCCNC(=N)N)NC(=O)CNC(=O)[C@H](CCC(N)=O)NC(=O)[C@H](CCCNC(=N)N)NC(=O)[C@H](CCCCN)NC(=O)[C@H](CC(C)C)NC(=O)[C@H](C)N)[C@@H](C)O)C(=O)O (H-ALKRQGRTL-OH)
Activity (Mesenchymal stem cell [1]): inactive | Activity (Mesenchymal stem cell [2]): inactive

CC(C)C[C@H](NC(=O)[C@H](C)N)C(=O)N[C@@H](CCCCN)C(=O)N[C@@H](CCCNC(=N)N)C(=O)N[C@@H](CCC(N)=O)C(=O)NCC(=O)N[C@@H](CCCNC(=N)N)C(=O)N[C@H](C(=O)N[C@@H](CC(C)C)C(=O)N[C@@H](CS)C(=O)O)[C@@H](C)O (H-ALKRQGRTLC-OH)
Activity (Mesenchymal stem cell [1]): inactive | Activity (Mesenchymal stem cell [2]): inactive

CC(C)C[C@H](NC(=O)[C@@H](NC(=O)[C@H](CCCNC(=N)N)NC(=O)CNC(=O)[C@H](CCC(N)=O)NC(=O)[C@H](CCCNC(=N)N)NC(=O)[C@H](CCCCN)NC(=O)[C@H](CC(C)C)NC(=O)[C@H](C)NC(=O)[C@@H](N)CS)[C@@H](C)O)C(=O)O (H-CALKRQGRTL-OH)
Activity (Mesenchymal stem cell [1]): inactive | Activity (Mesenchymal stem cell [2]): inactive

N[C@@H](CS)C(=O)N[C@@H](Cc1ccc(O)cc1)C(=O)NCC(=O)N[C@@H](Cc1ccccc1)C(=O)NCC(=O)NCC(=O)O (H-CYGFGG-OH)
Activity (Mesenchymal stem cell [1]): Active | Activity [3]: Active | Activity (Mesenchymal stem cell [4]): inactive | Activity (Mesenchymal stem cell [5]): inactive | Activity (Mesenchymal stem cell [6]): inactive | fold change (FC) [7]: 1.6 | Activity [8]: Active | fold change (FC) [9]: 49 | fold change (FC) [10]: 60 | Activity (Mesenchymal stem cell [11]): inactive | Activity [12]: Active | fold change (FC) [13]: 1.7 | fold change (FC) [14]: 2.6

N[C@@H](Cc1ccc(O)cc1)C(=O)NCC(=O)N[C@@H](Cc1ccccc1)C(=O)NCC(=O)NCC(=O)O (H-YGFGG-OH)
Activity (Mesenchymal stem cell [1]): inactive | Activity (Mesenchymal stem cell [4]): inactive | Activity (Mesenchymal stem cell [5]): inactive | Activity (Mesenchymal stem cell [6]): inactive | Activity (Mesenchymal stem cell [15]): Active | Activity (Mesenchymal stem cell [16]): inactive | Activity (Mesenchymal stem cell [17]): inactive | Activity (Mesenchymal stem cell [2]): inactive | Activity (Mesenchymal stem cell [11]): inactive | Activity (Mesenchymal stem cell [18]): inactive | Activity (Mesenchymal stem cell [19]): inactive

N[C@@H](Cc1ccc(O)cc1)C(=O)NCC(=O)N[C@@H](Cc1ccccc1)C(=O)NCC(=O)NCC(=O)N[C@@H](CS)C(=O)O (H-YGFGGC-OH)
Activity (Mesenchymal stem cell [1]): inactive | Activity (Mesenchymal stem cell [2]): inactive
